The source of these data is patent US7915284B2, “2-aryl-6-phenylimidazo[1,2-a]pyridine derivatives, preparation thereof and therapeutic use thereof” (Sanofi-Aventis, priority 2006, dated 2011).

T1 sequence (Q06219 whole entry): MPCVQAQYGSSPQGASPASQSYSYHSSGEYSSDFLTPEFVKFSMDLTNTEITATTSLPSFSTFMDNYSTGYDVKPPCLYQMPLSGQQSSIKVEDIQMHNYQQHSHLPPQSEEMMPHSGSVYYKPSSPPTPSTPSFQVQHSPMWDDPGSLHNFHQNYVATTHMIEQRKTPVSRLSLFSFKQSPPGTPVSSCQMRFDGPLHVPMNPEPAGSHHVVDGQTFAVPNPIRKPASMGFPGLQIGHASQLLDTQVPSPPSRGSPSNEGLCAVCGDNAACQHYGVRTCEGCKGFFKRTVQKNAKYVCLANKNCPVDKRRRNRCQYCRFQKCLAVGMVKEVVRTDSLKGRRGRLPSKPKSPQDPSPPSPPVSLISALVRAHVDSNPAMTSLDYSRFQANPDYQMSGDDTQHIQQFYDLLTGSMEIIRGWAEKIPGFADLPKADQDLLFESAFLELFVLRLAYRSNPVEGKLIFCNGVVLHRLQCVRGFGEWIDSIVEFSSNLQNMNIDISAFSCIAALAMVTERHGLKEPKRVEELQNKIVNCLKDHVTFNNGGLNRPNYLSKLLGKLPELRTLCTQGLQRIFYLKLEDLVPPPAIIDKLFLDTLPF

The test concerns the target T1, mouse Nurr1 receptor (Mus musculus, UniProt Q06219).
T1 construct: endogenously expressing the mouse Nurr1 receptor; host or cells: Neuro-2A (N2A) mouse neuroblastoma cells stably transfected with 8NBRE-luciferase
Briefly: In vitro activity on N2A cells (NBRE-luciferase reporter). The format is cell-based. To be noted: N2A cell line endogenously expressing mouse Nurr1, stably transfected with 8NBRE-luciferase; 24 hours incubation. The procedure:
Evaluation of the In Vitro Activity on N2A Cells
Assays consisted in measuring the in vitro activity of the compounds of the invention on a cell line (N2A) endogenously expressing the mouse Nurr1 receptor and stably transfected with the NOT binding response element (NBRE) coupled to the luciferase reporter gene. The EC50 values are between 0.01 and 1000 nM. The assays were carried out according to the procedure described below.
The Neuro-2A cell line comes from a standard commercial source (ATCC). The Neuro-2A clone was obtained from a spontaneous tumour originating from an A albino mouse strain, by R. J Klebe et col. This Neuro-2A line is subsequently stably transfected with 8NBRE-luciferase. The N2A-8NBRE cells are cultured until confluence in 75 cm^2 culture flasks containing DMEM supplemented with 10% of foetal calf serum, 4.5 g/l of glucose and 0.4 mg/ml of geneticin. After a week of culture, the cells are recovered with 0.25% trypsin for 30 seconds and then resuspended in DMEM without phenol red, containing 4.5 g/l of glucose and 10% of Hyclone delipidized serum, and deposited into transparent-bottom 96-well white plates. The cells are deposited at a rate of 60 000 per well in 75 μl for 24 hours before the addition of the products. The products are applied in 25 μl and incubated for a further 24 hours. On the day of the measurement, an equivalent volume (100 μl) of Steadylite are added to each well and then left for a period of 30 minutes in order to obtain complete cell lysis and maximum signal production. The plates are subsequently measured in a luminescence counter for microplates after having been sealed with an adhesive film. The products are prepared in the form of a stock solution at 10^−2M and then diluted in 100% of DMSO. Each product concentration is prediluted in culture medium before incubation with the cells, thus containing 0.625% final concentration of DMSO.
A general note: In a reporter assay the amount or activity of a reporter protein is the signal.
For the compound `CC(C)(O)c1cccc(-c2ccc3nc(-c4ccc(Cl)cc4)cn3c2)c1` [Compound 39, 2-{3-[2-(4-Chlorophenyl)imidazo[1,2-a]pyridin-6-yl]phenyl}propan-2-ol], the EC50 (commonly the concentration at which the effect is half-maximal) came to 0.7 nM. Compound `Cc1ccc(-c2cn3cc(-c4cccc(COc5ccc(Cl)cc5)c4)ccc3n2)cc1` [Compound 31, 6-[3-(4-Chlorophenoxymethyl)phenyl]-2-p-tolylimidazo[1,2-a]pyridine] displayed an EC50 of 14 nM. As to `OCc1ccccc1-c1ccc2nc(-c3ccc(Cl)cc3)cn2c1` [Compound 40, {2-[2-(4-Chlorophenyl)imidazo[1,2-a]pyridin-6-yl]phenyl}methanol], the EC50 turned out to be 0.7 nM. Take `COCCOCc1cccc(-c2ccc3nc(-c4ccc5ccccc5c4)cn3c2)c1` [Compound 17, 6-[3-(2-Methoxyethoxymethyl)phenyl]-2-(naphthalen-2-yl)imidazo[1,2-a]pyridine]: the half-maximal effective concentration (EC50) is 3.6 nM.
